Measurements reported in the NIST ThermoML archive (doi:10.1021/acs.jced.5b00105).
Numbers after ± are expanded uncertainties.

Assay: xn = mol fraction of the nth substance listed
Conditions: for mass density / viscosity: 100 kPa, Liquid; for mass density: Vibrating tube method; for surface tension liquid-gas: Drop volume; for viscosity: Concentric cylinders viscometry

CCCCC1CCCCC1 [butylcyclohexane] + CC(C)CC(C)(C)C
mass density (298.15 K, x1 = 0.6003): 756.05 ± 0.17 kg/m3
mass density (298.15 K, x1 = 0.6994): 766.27 ± 0.16 kg/m3
mass density (298.15 K, x1 = 0.8): 776.35 ± 0.16 kg/m3
mass density (298.15 K, x1 = 0.9001): 786.12 ± 0.16 kg/m3
mass density (298.15 K, x1 = 1): 795.63 ± 0.15 kg/m3
surface tension liquid-gas (303.15 K, x1 = 0.0999): 18.58 ± 0.24 mN/m
surface tension liquid-gas (303.15 K, x1 = 0.2002): 19.11 ± 0.24 mN/m
surface tension liquid-gas (303.15 K, x1 = 0.3001): 19.81 ± 0.24 mN/m
surface tension liquid-gas (303.15 K, x1 = 0.3996): 20.49 ± 0.24 mN/m
surface tension liquid-gas (303.15 K, x1 = 0.5005): 21.39 ± 0.24 mN/m
surface tension liquid-gas (303.15 K, x1 = 0.6003): 21.79 ± 0.24 mN/m
surface tension liquid-gas (303.15 K, x1 = 0.6994): 22.68 ± 0.24 mN/m
surface tension liquid-gas (303.15 K, x1 = 0.8): 23.51 ± 0.24 mN/m
surface tension liquid-gas (303.15 K, x1 = 0.9001): 24.53 ± 0.24 mN/m
surface tension liquid-gas (303.15 K, x1 = 1): 25.49 ± 0.24 mN/m
viscosity (303.15 K, x1 = 0.0999): 0.51 ± 0.082 mPa·s
viscosity (303.15 K, x1 = 0.2002): 0.556 ± 0.089 mPa·s
viscosity (303.15 K, x1 = 0.3001): 0.605 ± 0.097 mPa·s
viscosity (303.15 K, x1 = 0.3996): 0.657 ± 0.11 mPa·s
viscosity (303.15 K, x1 = 0.5005): 0.717 ± 0.12 mPa·s
viscosity (303.15 K, x1 = 0.6003): 0.781 ± 0.12 mPa·s
viscosity (303.15 K, x1 = 0.6994): 0.851 ± 0.14 mPa·s
viscosity (303.15 K, x1 = 0.8): 0.929 ± 0.15 mPa·s
viscosity (303.15 K, x1 = 0.9001): 1.014 ± 0.16 mPa·s
viscosity (303.15 K, x1 = 1): 1.109 ± 0.18 mPa·s
mass density (303.15 K, x1 = 0.0999): 695.93 ± 0.19 kg/m3
mass density (303.15 K, x1 = 0.2002): 707.85 ± 0.18 kg/m3
mass density (303.15 K, x1 = 0.3001): 719.4 ± 0.18 kg/m3
mass density (303.15 K, x1 = 0.3996): 730.57 ± 0.18 kg/m3
mass density (303.15 K, x1 = 0.5005): 741.58 ± 0.17 kg/m3
mass density (303.15 K, x1 = 0.6003): 752.17 ± 0.17 kg/m3
mass density (303.15 K, x1 = 0.6994): 762.43 ± 0.16 kg/m3
mass density (303.15 K, x1 = 0.8): 772.54 ± 0.16 kg/m3
mass density (303.15 K, x1 = 0.9001): 782.34 ± 0.16 kg/m3
mass density (303.15 K, x1 = 1): 791.88 ± 0.15 kg/m3
surface tension liquid-gas (308.15 K, x1 = 0.1008): 18.07 ± 0.24 mN/m
surface tension liquid-gas (308.15 K, x1 = 0.2): 18.59 ± 0.24 mN/m
surface tension liquid-gas (308.15 K, x1 = 0.3001): 19.17 ± 0.24 mN/m
surface tension liquid-gas (308.15 K, x1 = 0.3999): 19.76 ± 0.24 mN/m
surface tension liquid-gas (308.15 K, x1 = 0.5004): 20.41 ± 0.24 mN/m
surface tension liquid-gas (308.15 K, x1 = 0.5999): 21.12 ± 0.24 mN/m
surface tension liquid-gas (308.15 K, x1 = 0.6995): 21.94 ± 0.24 mN/m
surface tension liquid-gas (308.15 K, x1 = 0.7998): 22.79 ± 0.24 mN/m
surface tension liquid-gas (308.15 K, x1 = 0.9): 23.73 ± 0.24 mN/m
surface tension liquid-gas (308.15 K, x1 = 1): 24.73 ± 0.24 mN/m
viscosity (308.15 K, x1 = 0.0999): 0.486 ± 0.078 mPa·s
viscosity (308.15 K, x1 = 0.2002): 0.528 ± 0.085 mPa·s
viscosity (308.15 K, x1 = 0.3001): 0.573 ± 0.092 mPa·s
viscosity (308.15 K, x1 = 0.3996): 0.621 ± 0.1 mPa·s
viscosity (308.15 K, x1 = 0.5005): 0.675 ± 0.11 mPa·s
viscosity (308.15 K, x1 = 0.6003): 0.734 ± 0.12 mPa·s
viscosity (308.15 K, x1 = 0.6994): 0.797 ± 0.13 mPa·s
viscosity (308.15 K, x1 = 0.8): 0.868 ± 0.14 mPa·s
viscosity (308.15 K, x1 = 0.9001): 0.945 ± 0.15 mPa·s
viscosity (308.15 K, x1 = 1): 1.031 ± 0.17 mPa·s
